In patent US10087192B2, “2-(het)aryl-substituted fused bicyclic heterocycle derivatives as pesticides” (BAYER CROPSCIENCE AKTIENGESELLSCHSAFT, priority 2015, dated 2018):

Columns and labels:
Assay type in all cases: in vivo
Phaedon cochleariae = Phaedon cochleariae spray test; settings: 500 g/ha, after 7 days, larvae on Chinese cabbage leaf discs
Protocol: Phaedon cochleariae—Spray Test
Solvent: 78.0 parts by weight of acetone • • 1.5 parts by weight of dimethylformamide
(§1) Emulsifier: alkylaryl polyglycol ether
(§2) To produce a suitable preparation of active compound, 1 part by weight of active compound is dissolved using the stated parts by weight of solvent and made up with water containing an emulsifier concentration of 1000 ppm until the desired concentration is attained. To produce further test concentrations, the preparation is diluted with emulsifier-containing water.
After 7 days, the efficacy in % is determined. 100% means that all the beetle larvae have been killed; 0% means that no beetle larvae have been killed.

Myzus persicae [1] = assay: Myzus persicae spray test (Chinese cabbage leaf discs); settings: 500 g/ha, after 6 days
Protocol: Myzus persicae—Spray Test Solvent: 78 parts by weight of acetone • • 1.5 parts by weight of dimethylformamide Emulsifier: alkylaryl polyglycol ether […] To produce further test concentrations, the preparation is diluted with emulsifier-containing water. Discs of Chinese cabbage leaves (Brassica pekinensis) infested by all stages of the green peach aphid (Myzus persicae) are sprayed with an active compound preparation of the desired concentration.

Spodoptera frugiperda [2] = assay: Spodoptera frugiperda spray test (cotton leaves); settings: 100 ppm, after 7 days
Protocol: Spodoptera frugiperda—Spray Test
Solvent: 7 parts by weight of dimethylformamide
as §1
as §2, with “water. If the addition of ammonium salts or/and penetrants is required, these are each added in a concentration of 1000 ppm to the formulation solution.” for “water.”
Cotton leaves (Gossypium hirsutum) are sprayed with an active compound formulation of the desired concentration and populated with caterpillars of the armyworm (Spodoptera frugiperda).
After 7 days, the kill in % is determined. 100% means that all the caterpillars have been killed; 0% means that none of the caterpillars have been killed.

Lucilia cuprina = Lucilia cuprina test; settings: 100 ppm, after 2 days, L1 larvae
Protocol: (§3) Solvent: dimethyl sulphoxide
(§4) To produce a suitable preparation of active compound, 10 mg of active compound are mixed with 0.5 ml of dimethyl sulphoxide, and the concentrate is diluted with water to the desired concentration.
About 20 L1 larvae of the Australian sheep blowfly (Lucilia cuprina) are transferred into a test vessel containing minced horsemeat and the active compound preparation of the desired concentration.
After 2 days, the kill in % is determined. 100% means that all the larvae have been killed; 0% means that no larvae have been killed.

Ctenocephalides felis [3] = assay: Ctenocephalides felis oral test; settings: 100 ppm in citrated cattle blood, after 2 days
Source text: Ctenocephalides felis—Oral Test Solvent: dimethyl sulphoxide […] Dilution with citrated cattle blood gives the desired concentration. About 20 unfed adult cat fleas (Ctenocephalides felis) are placed into a chamber which is closed at the top and bottom with gauze. A metal cylinder whose bottom end is closed with parafilm is placed onto the chamber. The cylinder contains the blood/active compound preparation, which can be imbibed by the fleas through the parafilm membrane.

Ctenocephalides felis [4] = assay: Ctenocephalides felis in vitro contact test with adult cat fleas; settings: 5 μg/cm^2 (500 g/ha), after 48 h
Protocol: Ctenocephalides felis—In Vitro Contact Tests with Adult Cat Fleas
(§5) For the coating of the test tubes, 9 mg of active compound are first dissolved in 1 ml of acetone p.a. and then diluted to the desired concentration with acetone p.a. 250 μl of the solution are distributed homogeneously on the inner walls and the base of a 25 ml test tube by turning and rocking on an orbital shaker (rocking rotation at 30 rpm for 2 h). With 900 ppm active compound solution and internal surface 44.7 cm^2, given homogeneous distribution, an area-based dose of 5 μg/cm^2 is achieved.
After the solvent has evaporated off, the tubes are populated with 5-10 adult cat fleas (Ctenocephalides felis), sealed with a perforated plastic lid and incubated in a horizontal position at room temperature and ambient humidity. After 48 h, efficacy is determined. To this end, the test tubes are stood upright and the fleas are knocked to the base of the tube. Fleas which remain motionless at the base or move in an uncoordinated manner are considered to be dead or moribund.
100% efficacy means that all the fleas were dead or moribund. 0% efficacy means that no fleas were harmed.

Myzus persicae [5] = assay: Myzus persicae spray test (bell pepper plants); settings: 100 ppm, after 6 days
Protocol: Myzus persicae Spray Test Solvent: 7 parts by weight of dimethylformamide Emulsifier: alkylaryl polyglycol ether […] To produce further test concentrations, the preparation is diluted with emulsifier-containing water. If the addition of ammonium salts or/and penetrants is required, these are each added in a concentration of 1000 ppm to the formulation solution. Bell pepper plants (Capsicum annuum) severely infested with the green peach aphid (Myzus persicae) are treated by spraying with the active compound preparation in the desired concentration.

Meloidogyne incognita = Meloidogyne incognita test; settings: 20 ppm, after 14 days, lettuce
Protocol: Meloidogyne incognita Test
Solvent: 125.0 parts by weight of acetone
To produce a suitable preparation of active compound, 1 part by weight of active compound is mixed with the stated amount of solvent and the concentrate is diluted with water to the desired concentration.
Vessels are filled with sand, active compound solution, an egg/larvae suspension of the southern root-knot nematode (Meloidogyne incognita) and lettuce seeds. The lettuce seeds germinate and the plants develop. The galls develop on the roots.
After 14 days, the nematicidal efficacy in % is determined by the formation of galls. 100% means that no galls were found; 0% means that the number of galls on the treated plants corresponds to the untreated control.

Spodoptera frugiperda [6] = assay: Spodoptera frugiperda spray test (maize leaf discs); settings: 500 g/ha, after 7 days, caterpillars on maize leaf discs
Protocol: Spodoptera frugiperda—Spray Test Solvent: 78.0 parts by weight of acetone • • 1.5 parts by weight of dimethylformamide Emulsifier: alkylaryl polyglycol ether […] To produce further test concentrations, the preparation is diluted with emulsifier-containing water. Leaf discs of maize (Zea mays) are sprayed with an active compound preparation of the desired concentration and, after drying, populated with caterpillars of the armyworm (Spodoptera frugiperda).

Boophilus microplus = Boophilus microplus injection test; settings: 20 μg/animal, assessed after 7 days
Protocol: Boophilus microplus—Injection Test
as §3
To produce a suitable preparation of active compound, 10 mg of active compound are mixed with 0.5 ml of solvent and the concentrate is diluted with solvent to the desired concentration.
1 μl of the active compound solution is injected into the abdomen of 5 engorged adult female cattle ticks (Boophilus microplus). The animals are transferred into dishes and kept in a climate-controlled room.
Efficacy is assessed after 7 days by laying of fertile eggs. Eggs which are not visibly fertile are stored in a climate-controlled cabinet until the larvae hatch after about 42 days. An efficacy of 100% means that none of the ticks has laid any fertile eggs; 0% means that all the eggs are fertile.

Musca domestica = Musca domestica test; settings: 20 ppm, after 2 days, adult houseflies
Protocol: as §3, §4
Vessels containing a sponge treated with sugar solution and the active compound preparation of the desired concentration are populated with 10 adult houseflies (Musca domestica).
After 2 days, the kill in % is determined. 100% means that all of the flies have been killed; 0% means that none of the flies have been killed.

Rhipicephalus sanguineus = Rhipicephalus sanguineus in vitro contact test with adult brown dog ticks; settings: 5 μg/cm^2 (500 g/ha), after 48 h
Protocol: Rhipicephalus sanguineus—In Vitro Contact Tests with Adult Brown Dog Ticks
as §5
After the solvent has evaporated off, the tubes are populated with 5-10 adult dog ticks (Rhipicephalus sanguineus), sealed with a perforated plastic lid and incubated in a horizontal position in the dark at room temperature and ambient humidity. After 48 h, efficacy is determined. To this end, the ticks are knocked to the floor of the tube and incubated on a hotplate at 45-50° C. for not more than 5 min. Ticks which remain motionless on the floor or move in such an uncoordinated manner that they are unable to deliberately avoid the heat by climbing upwards are considered to be dead or moribund.
An efficacy of 100% means that all the ticks were dead or moribund. 0% efficacy means that none of the ticks had been harmed.

Structure (SMILES)	efficacy (Phaedon cochleariae) [%]	efficacy (Myzus persicae [1]) [%]	efficacy (kill) (Spodoptera frugiperda [2]) [%]	efficacy (kill) (Lucilia cuprina) [%]	efficacy (kill) (Ctenocephalides felis [3]) [%]	efficacy (Ctenocephalides felis [4]) [%]	efficacy (kill) (Myzus persicae [5]) [%]	nematicidal efficacy (formation of galls) (Meloidogyne incognita) [%]	efficacy (Spodoptera frugiperda [6]) [%]	efficacy (laying of fertile eggs) (Boophilus microplus) [%]	efficacy (kill) (Musca domestica) [%]	efficacy (Rhipicephalus sanguineus) [%]
CCS(=O)(=O)c1ccc(-n2cncn2)nc1-c1nc2cc(C(F)(F)F)ncc2n1C [Example 32]	100	100	100	–	–	–	–	–	–	–	–	–
CCS(=O)(=O)c1ccc(-n2cnc(NC(C)=O)n2)nc1-c1nc2cc(C(F)(F)F)ncc2n1C [Example 11]	100	–	–	100	100	100	100	–	–	–	–	–
CCS(=O)(=O)c1ccc(-n2cnc(I)c2)nc1-c1nc2cc(C(F)(F)F)ncc2n1C [Example 14]	100	100	100	100	100	100	–	100	–	–	–	–
CCS(=O)(=O)c1ccc(-n2nccn2)nc1-c1nc2cc(C(F)(F)F)ncc2n1C [Example 17]	100	90	–	100	98	100	–	–	100	100	85	100
CCS(=O)(=O)c1ccc(N2CCOCC2)nc1-c1nc2cc(C(F)(F)F)ncc2n1C [Example 1]	–	–	–	90	98	–	95	–	–	–	–	–
